Reference: patent US12331054B2, “Perk inhibiting imidazolopyrazine compounds” (HiberCell, Inc., priority 2019, dated 2025)

Legend:
[1] = test system: eIF2α in HEK293-EGFP-eIF2α cells; experiment: PERK Cellular Assay (HEK293-EGFP-eIF2α cells, tunicamycin-induced ER stress, TR-FRET); type: cell-based; settings: tunicamycin 2 hours
Outline: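 Cells pre-incubated with inhibitor 30 min at 37 °C, then ER stress induced with […] tunicamycin for 2 h. TR-FRET read on lysates; ratio normalized to DMSO control as percent inhibition over a 10-point, 3-fold dilution series; IC50 from 4-parameter logistic fit.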

[2] = biological target: Recombinant human EIF2AK3 (PERK) catalytic domain (amino acids 536-1116) (Homo sapiens (Human), UniProt Q9NZJ5); experiment: PERK In Vitro Activity Assay (isolated), TR-FRET kinase assay; settings: isolated PERK enzyme, 1.5 μM ATP, read-out: Biochemical IC50
Outline: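 Recombinant PERK catalytic domain was incubated with 100–200 nM GFP-eIF2a substrate in 50 mM HEPES pH 7.5, 10 mM MgCl2, 1.0 mM EGTA and 0.01% Brij-35 for 45 min at room temperature. After a 10 mM EDTA stop, 2 nM Tb-anti-phospho-eIF2a was added for 90 min, and IC50 was fitted from TR-FRET ratios by 4-parameter logistic regression.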

Sequence of Recombinant human EIF2AK3 (PERK) catalytic domain (amino acids 536-1116) (Q9NZJ5 536-1116): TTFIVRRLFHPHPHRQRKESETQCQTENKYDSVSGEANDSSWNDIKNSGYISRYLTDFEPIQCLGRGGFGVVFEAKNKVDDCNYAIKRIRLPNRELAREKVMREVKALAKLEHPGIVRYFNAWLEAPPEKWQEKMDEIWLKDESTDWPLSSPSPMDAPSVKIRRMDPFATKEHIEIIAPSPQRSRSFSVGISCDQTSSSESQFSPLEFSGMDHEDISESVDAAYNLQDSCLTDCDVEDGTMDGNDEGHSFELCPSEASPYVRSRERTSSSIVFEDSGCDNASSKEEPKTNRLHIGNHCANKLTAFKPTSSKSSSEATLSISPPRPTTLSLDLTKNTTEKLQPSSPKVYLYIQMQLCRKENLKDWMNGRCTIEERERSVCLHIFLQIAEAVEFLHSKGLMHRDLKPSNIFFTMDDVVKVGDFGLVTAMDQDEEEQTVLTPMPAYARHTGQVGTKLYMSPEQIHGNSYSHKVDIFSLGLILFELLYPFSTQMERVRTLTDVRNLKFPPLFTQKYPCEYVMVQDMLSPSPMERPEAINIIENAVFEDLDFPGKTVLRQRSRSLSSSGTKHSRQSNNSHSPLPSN

| IC50 [2] | SMILES | IC50 ([1]; 2 h) | IC50 [1] |
| --- | --- | --- | --- |
| 1 to 25 nM | [2H]C([2H])([2H])c1nc(-c2ccc(NC(=O)C(O)c3cccc(F)c3)c(F)c2F)c2c(N)nc(C)cn12 (centres unmarked) [Example 130, N-[4-[8-amino-6-methyl-3-(trideuteriomethyl)imidazo[1,5-a]pyrazin-1-yl]-2,3-difluoro-phenyl]-2-(3-fluoro-phenyl)-2-hydroxy-acetamide] |  | 1 to 25 nM |
| 1 to 25 nM | [2H]C([2H])([2H])c1nc(-c2ccc(NC(=O)C(O)c3cc(F)cc(C(F)(F)F)c3)cc2C)c2c(N)ncc(Cl)n12 (centres unmarked) [Example 56, N-[4-[8-amino-5-chloro-3-(trideuteriomethyl)imidazo[1,5-a]pyrazin-1-yl]-3-methyl-phenyl]-2-[3-fluoro-5-(trifluoromethyl)phenyl]-2-hydroxy-acetamide] |  | 1 to 25 nM |
| 1 to 25 nM | [2H]C([2H])([2H])c1nc(-c2ccc(NC(=O)C(O)c3cc(F)cc(C(F)(F)F)c3)c(F)c2F)c2c(N)ncc(Cl)n12 (centres unmarked) [Example 164, N-[4-[8-amino-5-chloro-3-(trideuteriomethyl)imidazo[1,5-a]pyrazin-1-yl]-2,3-difluoro-phenyl]-2-[3-fluoro-5-(trifluoromethyl)phenyl]-2-hydroxy-acetamide] |  | 1 to 25 nM |
| 1 to 25 nM | [2H]C([2H])([2H])c1nc(-c2ccc(NC(=O)C(O)c3cc(F)cc(C(F)(F)F)c3)cc2F)c2c(N)ncc(C)n12 (centres unmarked) [Example 110, N-[4-[8-amino-5-methyl-3-(trideuteriomethyl)imidazo[1,5-a]pyrazin-1-yl]-3-fluoro-phenyl]-2-[3-fluoro-5-(trifluoromethyl)phenyl]-2-hydroxy-acetamide] |  | 1 to 25 nM |
| 101 to 250 nM | [2H]C([2H])([2H])c1nc(-c2ccc(NC(=O)C(O)c3cccc(F)c3)c(F)c2F)c2c(N)ncc(C(F)(F)F)n12 (centres unmarked) [Example 135, N-[4-[8-amino-3-(trideuteriomethyl)-5-(trifluoromethyl)imidazo[1,5-a]pyrazin-1-yl]-2,3-difluoro-phenyl]-2-(3-fluorophenyl)-2-hydroxy-acetamide] |  | 501 to 1000 nM |
| 1 to 25 nM | [2H]C([2H])([2H])c1nc(-c2ccc(NC(=O)C(O)c3cccc(C(F)(F)F)c3)c(F)c2F)c2c(N)ncc(C(F)(F)F)n12 (centres unmarked) [Example 148, N-[4-[8-amino-3-(trideuteriomethyl)-5-(trifluoromethyl)imidazo[1,5-a]pyrazin-1-yl]-2,3-difluoro-phenyl]-2-hydroxy-2-[3-(trifluoromethyl)phenyl]acetamide] |  | 1 to 25 nM |
| 1 to 25 nM | [2H]C([2H])([2H])c1nc(-c2ccc(NC(=O)C(O)c3cccc(C(F)(F)F)c3)cc2C)c2c(N)ncc(C(F)(F)F)n12 (centres unmarked) [Example 20, N-[4-[8-amino-3-(trideuteriomethyl)-5-(trifluoromethyl)imidazo[1,5-a]pyrazin-1-yl]-3-methyl-phenyl]-2-hydroxy-2-[3-(trifluoromethyl)phenyl]acetamide] |  | 26 to 50 nM |
| 1 to 25 nM | [2H]C([2H])([2H])c1nc(-c2ccc(NC(=O)C(O)c3cccc(F)c3)cc2F)c2c(N)ncc(C)n12 (centres unmarked) [Example 72, N-[4-[8-amino-5-methyl-3-(trideuteriomethyl)imidazo[1,5-a]pyrazin-1-yl]-3-fluoro-phenyl]-2-(3-fluorophenyl)-2-hydroxy-acetamide] | 1 to 25 nM |  |
| 1 to 25 nM | [2H]C([2H])([2H])c1nc(-c2ccc(NC(=O)C(O)c3cccc(F)c3)c(F)c2)c2c(N)ncc(C)n12 (centres unmarked) [Example 123, N-[4-[8-amino-5-methyl-3-(trideuteriomethyl)imidazo[1,5-a]pyrazin-1-yl]-2-fluoro-phenyl]-2-(3-fluorophenyl)-2-hydroxy-acetamide] |  | 1 to 25 nM |
| 51 to 100 nM | [2H]C([2H])([2H])c1nc(-c2ccc(NC(=O)C(O)c3cc(F)cc(C(F)(F)F)c3)cc2F)c2c(N)ncc(C(F)(F)F)n12 (centres unmarked) [Example 113, N-[4-[8-amino-3-(trideuteriomethyl)-5-(trifluoromethyl)imidazo[1,5-a]pyrazin-1-yl]-3-fluoro-phenyl]-2-[3-fluoro-5-(trifluoromethyl)phenyl]-2-hydroxy-acetamide] |  | 101 to 250 nM |

More lines, now with the values behind:

| SMILES | IC50 [2] | IC50 ([1]; 2 h) | IC50 [1] |
| --- | --- | --- | --- |
| Cc1cnc(N)c2c(-c3ccc(NC(=O)C(O)c4cccc(Cl)c4)cc3F)nc(C)n12 (centres unmarked) [Example 78, N-(4-(8-amino-3,5-dimethylimidazo [1,5-a]pyrazin-1-yl)-3-fluorophenyl)-2-(3-chlorophenyl)-2-hydroxy-acetamide] | 1 to 25 nM | 1 to 25 nM |  |
| [2H]C([2H])([2H])c1nc(-c2ccc(NC(=O)C(O)c3cc(F)cc(F)c3)cc2C)c2c(N)ncc(C)n12 (centres unmarked) [Example 51, N-[4-[8-amino-5-methyl-3-(trideuteriomethyl)imidazo[1,5-a]pyrazin-1-yl]-3-methyl-phenyl]-2-(3,5-difluoro-phenyl)-2-hydroxy-acetamide] | 1 to 25 nM |  | 51 to 100 nM |
| [2H]C([2H])([2H])c1nc(-c2ccc(NC(=O)C(O)c3cc(F)cc(C(F)(F)F)c3)cc2C)c2c(N)nc(C)cn12 (centres unmarked) [Example 52, N-[4-[8-amino-6-methyl-3-(trideuteriomethyl)imidazo[1,5-a]pyrazin-1-yl]-3-methyl-phenyl]-2-[3-fluoro-5-(trifluoromethyl)phenyl]-2-hydroxy-acetamide] | 1 to 25 nM |  | 26 to 50 nM |
| [2H]C([2H])([2H])c1nc(-c2ccc(NC(=O)C(O)c3cccc(Cl)c3)cc2F)c2c(N)ncc(C)n12 (centres unmarked) [Example 85, N-[4-[8-amino-5-methyl-3-(trideuteriomethyl)imidazo[1,5-a]pyrazin-1-yl]-3-fluoro-phenyl]-2-(3-chlorophenyl)-2-hydroxy-acetamide] | 1 to 25 nM |  | 51 to 100 nM |
| [2H]C([2H])([2H])c1nc(-c2ccc(NC(=O)C(O)c3cccc(Cl)c3)cc2C)c2c(N)ncc(Cl)n12 (centres unmarked) [Example 43, N-[4-[8-amino-5-chloro-3-(trideuteriomethyl)imidazo[1,5-a]pyrazin-1-yl]-3-methyl-phenyl]-2-(3-chlorophenyl)-2-hydroxy-acetamide] | 1 to 25 nM |  | 26 to 50 nM |
| Cc1cn2c(C)nc(-c3ccc(NC(=O)C(O)c4cccc(F)c4)cc3C)c2c(N)n1 (single isomer, unassigned) [Example 3, N-(4-(8-amino-3,6-dimethylimidazo[1,5-a]pyrazin-1-yl)-3-methylphenyl)-2-(3-fluorophenyl)-2-hydroxyacetamide] | 1 to 25 nM |  | 26 to 50 nM |
| [2H]C([2H])([2H])c1nc(-c2ccc(NC(=O)C(O)c3cc(F)cc(F)c3)cc2C)c2c(N)nc(C)cn12 (centres unmarked) [Example 45, N-[4-[8-amino-6-methyl-3-(trideuteriomethyl)imidazo[1,5-a]pyrazin-1-yl]-3-methyl-phenyl]-2-(3,5-difluoro-phenyl)-2-hydroxy-acetamide] | 51 to 100 nM |  | 1000 to 2000 nM |
| Cc1cc(F)cc(C(O)C(=O)Nc2ccc(-c3nc(C)n4c(C)cnc(N)c34)c(C)c2)c1 (centres unmarked) [Example 62, N-(4-(8-amino-3,5-dimethylimidazo [1,5-a]pyrazin-1-yl)-3-methyl-phenyl)-2-(3-fluoro-5-methylphenyl)-2-hydroxyacetamide] | 1 to 25 nM |  | 1 to 25 nM |
| [2H]C([2H])([2H])c1nc(-c2ccc(NC(=O)C(O)c3cccc(C)c3)cc2F)c2c(N)ncc(C)n12 (centres unmarked) [Example 91, N-[4-[8-amino-5-methyl-3-(trideuteriomethyl)imidazo[1,5-a]pyrazin-1-yl]-3-fluoro-phenyl]-2-hydroxy-2-(m-tolyl)acetamide] | 1 to 25 nM |  | 51 to 100 nM |
